Results: ChEMBL document CHEMBL4842379 (J Med Chem, 2021)
Activity calls are given as the source filed them. No cut-off for these calls is given here.

Legend:
[1] = Reversal of resistance to paclitaxel-induced cytotoxicity in paclitaxel-resistant human SW-620/AD300 cells assessed as reduction in paclitaxel IC50 at 2 uM pre-incubated for 4 hrs followed by paclitaxel addition and measured after 72 hrs by MTT assay; assay type: functional, cell-based
[2] = biological target: Epidermal growth factor receptor (Homo sapiens, UniProt P00533, L858R); experiment: Inhibition of EGFR L858R mutant (unknown origin)
Sequence of Epidermal growth factor receptor (P00533 25-1210 L858R limits assumed): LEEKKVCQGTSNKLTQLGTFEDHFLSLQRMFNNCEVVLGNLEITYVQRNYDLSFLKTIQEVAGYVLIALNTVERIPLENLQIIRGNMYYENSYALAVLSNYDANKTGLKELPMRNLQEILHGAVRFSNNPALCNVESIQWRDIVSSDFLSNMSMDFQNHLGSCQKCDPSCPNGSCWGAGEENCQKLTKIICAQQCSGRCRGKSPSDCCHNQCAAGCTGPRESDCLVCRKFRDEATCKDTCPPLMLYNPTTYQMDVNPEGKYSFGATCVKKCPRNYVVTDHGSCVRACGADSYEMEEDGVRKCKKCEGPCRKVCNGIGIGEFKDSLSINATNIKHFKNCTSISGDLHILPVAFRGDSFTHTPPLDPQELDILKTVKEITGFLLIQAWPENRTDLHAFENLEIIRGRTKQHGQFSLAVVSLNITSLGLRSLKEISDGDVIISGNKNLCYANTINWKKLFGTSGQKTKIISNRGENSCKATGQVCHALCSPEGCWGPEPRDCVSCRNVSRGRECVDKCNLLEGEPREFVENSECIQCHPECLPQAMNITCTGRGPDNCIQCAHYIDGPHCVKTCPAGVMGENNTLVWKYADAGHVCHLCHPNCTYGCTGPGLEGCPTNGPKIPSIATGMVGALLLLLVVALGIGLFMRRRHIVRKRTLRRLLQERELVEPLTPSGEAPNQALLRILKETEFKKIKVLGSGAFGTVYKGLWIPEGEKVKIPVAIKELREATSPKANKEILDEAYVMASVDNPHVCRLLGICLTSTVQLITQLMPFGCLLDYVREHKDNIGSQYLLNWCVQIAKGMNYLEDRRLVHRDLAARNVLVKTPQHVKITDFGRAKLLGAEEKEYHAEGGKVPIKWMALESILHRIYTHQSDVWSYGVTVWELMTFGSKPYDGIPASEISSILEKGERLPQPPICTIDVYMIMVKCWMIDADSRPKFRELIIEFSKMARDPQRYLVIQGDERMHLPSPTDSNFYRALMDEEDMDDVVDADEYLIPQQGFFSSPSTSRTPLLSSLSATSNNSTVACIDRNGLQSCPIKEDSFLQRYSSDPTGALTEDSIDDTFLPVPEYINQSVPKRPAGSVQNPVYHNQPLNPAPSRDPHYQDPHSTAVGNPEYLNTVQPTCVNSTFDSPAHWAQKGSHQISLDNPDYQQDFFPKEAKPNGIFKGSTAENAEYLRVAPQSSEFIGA

[3] = Reversal of resistance to colchicine-induced cytotoxicity in human SW620/AD300 cells assessed as reduction in colchicine IC50 at 2 uM pre-incubated for 4 hrs followed by colchicine addition and measured after 72 hrs by MTT assay; assay type: functional, cell-based; details: SW-620
SW-620 [4] = experiment: Effect on intracellular Rhodamine 123 accumulation in human SW620 cells at 0.5 to 2 uM incubated for 24 hrs by flow cytometry; assay type: functional, cell-based; details: dose 0.5-2 µM
[5] = biological target: T1, ATP-dependent translocase ABCB1 (Homo sapiens, UniProt P08183); experiment: Inhibition of P-gp in paclitaxel-resistant human SW620/AD300 cells assessed as accumulation of paclitaxel incubated for 24 hrs by HPLC analysis; assay type: cell-based; details: sw-620, 24 h
T1 sequence (P08183 whole entry): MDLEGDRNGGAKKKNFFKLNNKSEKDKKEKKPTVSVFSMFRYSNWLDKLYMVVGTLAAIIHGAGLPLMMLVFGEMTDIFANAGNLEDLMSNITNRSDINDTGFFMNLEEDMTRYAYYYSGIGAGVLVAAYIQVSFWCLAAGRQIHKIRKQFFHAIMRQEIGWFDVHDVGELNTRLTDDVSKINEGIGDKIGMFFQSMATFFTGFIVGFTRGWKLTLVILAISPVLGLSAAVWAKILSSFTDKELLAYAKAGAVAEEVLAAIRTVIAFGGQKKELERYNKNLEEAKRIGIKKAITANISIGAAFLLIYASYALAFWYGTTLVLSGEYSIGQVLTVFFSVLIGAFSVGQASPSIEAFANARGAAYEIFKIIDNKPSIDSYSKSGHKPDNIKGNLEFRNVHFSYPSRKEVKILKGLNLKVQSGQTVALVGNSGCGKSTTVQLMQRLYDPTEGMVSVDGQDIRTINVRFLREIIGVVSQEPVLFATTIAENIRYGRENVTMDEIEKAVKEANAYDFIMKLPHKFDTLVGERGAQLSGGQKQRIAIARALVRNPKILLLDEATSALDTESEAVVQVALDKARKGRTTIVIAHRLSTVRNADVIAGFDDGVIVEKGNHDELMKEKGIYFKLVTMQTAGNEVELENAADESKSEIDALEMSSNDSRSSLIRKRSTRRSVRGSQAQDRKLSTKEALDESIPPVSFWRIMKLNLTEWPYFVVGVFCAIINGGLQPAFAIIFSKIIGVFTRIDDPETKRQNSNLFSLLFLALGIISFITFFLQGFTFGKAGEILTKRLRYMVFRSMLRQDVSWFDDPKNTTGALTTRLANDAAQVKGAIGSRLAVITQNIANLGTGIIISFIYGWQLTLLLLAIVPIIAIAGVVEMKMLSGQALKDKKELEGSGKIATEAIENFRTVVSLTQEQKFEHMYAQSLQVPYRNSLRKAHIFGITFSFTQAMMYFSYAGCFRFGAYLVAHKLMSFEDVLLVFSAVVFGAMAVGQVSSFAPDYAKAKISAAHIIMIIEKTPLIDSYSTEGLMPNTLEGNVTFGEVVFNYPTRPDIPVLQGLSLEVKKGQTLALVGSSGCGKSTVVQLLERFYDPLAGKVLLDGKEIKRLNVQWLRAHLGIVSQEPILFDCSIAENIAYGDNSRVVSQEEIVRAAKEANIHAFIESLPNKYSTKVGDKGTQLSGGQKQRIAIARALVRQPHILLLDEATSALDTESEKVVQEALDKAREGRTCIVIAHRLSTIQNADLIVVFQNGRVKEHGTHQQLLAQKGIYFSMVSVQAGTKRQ

[6] = Reversal of resistance to paclitaxel-induced cytotoxicity in human SW620/AD300 cells assessed as reduction in paclitaxel IC50 at 0.5 uM pre-incubated for 4 hrs followed by paclitaxel addition and measured after 72 hrs by MTT assay; assay type: functional, cell-based; details: SW-620
[7] = Reversal of resistance to paclitaxel-induced cytotoxicity in human SW620/AD300 cells assessed as reduction in paclitaxel IC50 at 1 uM pre-incubated for 4 hrs followed by paclitaxel addition and measured after 72 hrs by MTT assay; assay type: functional, cell-based; details: SW-620
[8] = Reversal of resistance to colchicine-induced cytotoxicity in human SW620/AD300 cells assessed as reduction in colchicine IC50 at 0.5 uM pre-incubated for 4 hrs followed by colchicine addition and measured after 72 hrs by MTT assay; assay type: functional, cell-based; details: SW-620
[9] = Reversal of resistance to colchicine-induced cytotoxicity in human SW620/AD300 cells assessed as reduction in colchicine IC50 at 1 uM pre-incubated for 4 hrs followed by colchicine addition and measured after 72 hrs by MTT assay; assay type: functional, cell-based; details: SW-620
SW-620 [10] = experiment: Reduction in P-gp expression in paclitaxel-resistant human SW620/AD300 cells measured after 72 hrs by Western blotting analysis; assay type: functional, cell-based
SW-620 [11] = experiment: Effect on P-gp subcellular localization in paclitaxel-resistant human SW620/AD300 cells measured after 72 hrs by Hoechst 33258 staining based immunocytochemistry analysis; assay type: functional, cell-based
[12] = biological target: T1, ATP-dependent translocase ABCB1; experiment: Inhibition of P-gp in paclitaxel-resistant human SW620/AD300 cells assessed as rescue of intracellular Rhodamine 123 accumulation incubated for 24 hrs by flow cytometry; assay type: cell-based; details: sw-620, 24 h, dose 0.5-2 µM
[13] = biological target: T1, ATP-dependent translocase ABCB1; experiment: Stabilization of P-gp in paclitaxel-resistant human SW620/AD300 cells at higher temperature incubated for 30 mins by Western blot based cellular thermal shift assay; assay type: cell-based; details: sw-620, 0.5 h
[14] = biological target: T1, ATP-dependent translocase ABCB1; experiment: Inhibition of recombinant human P-gp ATPase activity incubated for 60 mins by luminescence based Glo assay
Cytochrome P450 3A4 = Cytochrome P450 3A4 (Homo sapiens, UniProt P08684); experiment: Inhibition of human recombinant CYP3A4 by fluorescence assay; assay type: ADME
Sequence of Cytochrome P450 3A4 (P08684 whole entry): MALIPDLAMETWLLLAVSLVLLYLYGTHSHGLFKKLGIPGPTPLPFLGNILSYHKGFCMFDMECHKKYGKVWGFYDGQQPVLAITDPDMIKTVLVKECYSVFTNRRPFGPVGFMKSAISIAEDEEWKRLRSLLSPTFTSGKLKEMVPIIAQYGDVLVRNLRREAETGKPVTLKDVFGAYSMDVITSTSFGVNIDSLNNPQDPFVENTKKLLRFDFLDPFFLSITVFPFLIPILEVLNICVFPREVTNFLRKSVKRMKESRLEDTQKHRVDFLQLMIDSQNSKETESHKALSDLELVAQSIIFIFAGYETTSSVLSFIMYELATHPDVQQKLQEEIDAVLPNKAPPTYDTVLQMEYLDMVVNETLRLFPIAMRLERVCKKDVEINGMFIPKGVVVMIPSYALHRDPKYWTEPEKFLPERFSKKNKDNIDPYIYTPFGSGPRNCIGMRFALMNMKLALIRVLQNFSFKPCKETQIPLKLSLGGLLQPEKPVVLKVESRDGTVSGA

SW-620 [15] = experiment: In vivo antitumor activity against paclitaxel-resistant human SW620/AD300 cells xenografted in mouse assessed as reduction in tumor volume at 20 mg/kg, po in presence of 5 mg/kg paclitaxel treated for 3 days measured for 19 days; assay type: functional, organism-based; details: time 19.0 day
[16] = Toxicity in mouse xenografted with paclitaxel-resistant human SW620/AD300 cells assessed as change in body weight at 20 mg/kg, po in presence of 5 mg/kg paclitaxel treated for 3 days measured for 19 days; assay type: organism-based; details: in vivo, 456 h, time 19 day
[17] = Toxicity in mouse xenografted with paclitaxel-resistant human SW620/AD300 cells assessed as change in body weight at 20 mg/kg, po measured for 19 days; assay type: organism-based; details: in vivo, 456 h, time 19 day

Work on `COc1cc2ncnc(-c3c(-c4ccccc4)n(Cc4cccc(C(F)(F)F)c4)c4ccccc34)c2cc1OCCCN1CCOCC1` yielded a Paclitaxel IC50 in presence of compound at 2 uM [1] of 20 nM.
With `CCn1c(-c2ccccc2)c(-c2nc(-c3ccccc3)nc3ccccc23)c2ccccc21` the Paclitaxel IC50 in presence of compound at 2 uM [1] was 1200 nM.
In the case of `COc1cc2ncnc(-c3cn(Cc4ccccc4)c4cccc(OC)c34)c2cc1OCCCN1CCOCC1`, the Paclitaxel IC50 in presence of compound at 2 uM [1] is reported as 1000 nM.
Molecule `COc1cc2ncnc(-c3c(-c4ccccc4)[nH]c4ccccc34)c2cc1OCCCN1CCOCC1` has a Paclitaxel IC50 in presence of compound at 2 uM [1] of 800 nM.
`COc1cc2ncnc(-c3c(-c4ccccc4F)[nH]c4ccccc34)c2cc1OCCCN1CCOCC1` gave a Paclitaxel IC50 in presence of compound at 2 uM [1] of 500 nM.
`COc1cc2ncnc(-c3c(-c4cccc(F)c4)[nH]c4ccccc34)c2cc1OCCCN1CCOCC1` gave a Paclitaxel IC50 in presence of compound at 2 uM [1] of 800 nM.
`COc1cc2ncnc(-c3cn(Cc4cccc(C)c4)c4ccccc34)c2cc1OCCCN1CCOCC1` gave a Paclitaxel IC50 in presence of compound at 2 uM [1] of 30 nM.
Molecule `COc1cc2ncnc(-c3c(-c4ccc(C)cc4)[nH]c4ccccc34)c2cc1OCCCN1CCOCC1` has a Paclitaxel IC50 in presence of compound at 2 uM [1] of 300 nM.
`COc1cc2ncnc(-c3c(-c4ccc(-c5ccccc5)cc4)[nH]c4ccccc34)c2cc1OCCCN1CCOCC1` showed a Paclitaxel IC50 in presence of compound at 2 uM [1] of 20 nM.
`CCc1ccc(-c2[nH]c3ccccc3c2-c2ncnc3cc(OC)c(OCCCN4CCOCC4)cc23)cc1` showed a Paclitaxel IC50 in presence of compound at 2 uM [1] of 70 nM.
In the case of `C#CCn1c(-c2ccccc2)c(-c2ncnc3cc(OC)c(OCCCN4CCOCC4)cc23)c2ccccc21`, the Paclitaxel IC50 in presence of compound at 2 uM [1] is reported as 2200 nM.
With `CCn1c(-c2ccccc2)c(-c2ncnc3cc(OC)c(OCCCN4CCOCC4)cc23)c2ccccc21` the Paclitaxel IC50 in presence of compound at 2 uM [1] was 700 nM and the IC50 [2] was 1.3 nM.
Molecule `CCn1c(-c2ccccc2)c(-c2ncnc3ccccc23)c2ccccc21` has a Paclitaxel IC50 in presence of compound at 2 uM [1] of 2200 nM.
For `CCn1c(-c2ccccc2)c(-c2ncnc3cc(OCCOC)c(OCCOC)cc23)c2ccccc21`, the Paclitaxel IC50 in presence of compound at 2 uM [1] was 800 nM.
With `COc1ccc(CCN(C)CCCC(C#N)(c2ccc(OC)c(OC)c2)C(C)C)cc1OC` (configuration not stated) the IC50 [3] was 20600 nM, the Activity (SW-620 [4]) was “inactive” and the Activity [5] was “Dose-Dependent Effect”.
`CCCCn1cc(-c2ncnc3cc(OC)c(OCCCN4CCOCC4)cc23)c2ccccc21` gave a Paclitaxel IC50 in presence of compound at 2 uM [1] of 400 nM.
For `C=CCn1c(-c2ccccc2)c(-c2ncnc3cc(OC)c(OCCCN4CCOCC4)cc23)c2ccccc21`, the Paclitaxel IC50 in presence of compound at 2 uM [1] was 2300 nM.
Work on `COc1cc2ncnc(-c3c(-c4ccccc4)n(Cc4ccccc4Br)c4ccccc34)c2cc1OCCCN1CCOCC1` yielded an IC50 [6] of 100 nM, an IC50 [7] of 20 nM and an IC50 [8] of 26500 nM. The IC50 [9] was 17200 nM, the IC50 [3] was 6200 nM and the Activity (SW-620 [10]) was “inactive”. For the same molecule, the Activity (SW-620 [11]) was “inactive”, the Activity [12] was “Dose-Dependent Effect” and the Activity (SW-620 [4]) was “inactive”. The Activity [5] was “Dose-Dependent Effect”, the Activity [13] was “Dose-Dependent Effect” and the IC50 [14] was 5100 nM. For the same molecule, the Activity ([14]; human, 1 h, time 60 min) was “Dose-Dependent Effect”, the IC50 (Cytochrome P450 3A4) was 4100 nM and the Activity (SW-620 [15]) was “Active”. For the same molecule, the Activity [16] was “Non-Toxic” and the Activity [17] was “Non-Toxic”.
`COc1cc2ncnc(-c3c(-c4ccccc4)n(Cc4ccc(Cl)cc4)c4ccccc34)c2cc1OCCCN1CCOCC1` gave a Paclitaxel IC50 in presence of compound at 2 uM [1] of 7 nM.
Work on `COc1cc2ncnc(-c3c(-c4ccc(F)cc4)[nH]c4ccccc34)c2cc1OCCCN1CCOCC1` yielded a Paclitaxel IC50 in presence of compound at 2 uM [1] of 300 nM.
`COc1cc2ncnc(-c3c(-c4ccccc4)n(CCCc4ccccc4)c4ccccc34)c2cc1OCCCN1CCOCC1` gave a Paclitaxel IC50 in presence of compound at 2 uM [1] of 6 nM.
Molecule `CCCCc1ccc(-c2[nH]c3ccccc3c2-c2ncnc3cc(OC)c(OCCCN4CCOCC4)cc23)cc1` has a Paclitaxel IC50 in presence of compound at 2 uM [1] of 100 nM.
For `COc1cc2ncnc(-c3c(-c4ccc(C(F)(F)F)cc4)[nH]c4ccccc34)c2cc1OCCCN1CCOCC1`, the Paclitaxel IC50 in presence of compound at 2 uM [1] was 700 nM.
